Experimental data taken from patent US10729664B2, “Permanently charged sodium and calcium channel blockers as anti-inflammatory agents” (Children's Medical Center Corporation, priority 2009, dated 2020).
“Also recorded” adds a separate entry of the source.

Tests used:
[1] = test system: voltage-dependent calcium channels; assay: Whole-cell recording of currents through voltage-activated calcium channels in a dissociated dorsal root ganglion neuron; format: cell-based, rat
Procedure: The traces show currents through voltage-activated calcium channels in a dissociated rat dorsal root ganglion neuron, recorded in whole-cell mode. Current was carried by 2 mM Ba^2+ on a background of 155 mM N-methyl-D-glucamine (to eliminate Na current), with an internal CsCl-based solution. Calcium channels were opened by a voltage step from −80 mV to −20 mV. When channels are opened, inward-going current is carried by Ba^2+ ions flowing into the cell.

rat hindpaw = assay: Edema elicited by injection of complete Freund's adjuvant (CFA) in the rat hindpaw, total hindpaw volume by plethysmography; format: in vivo; settings: intravenous QX-314 0.4 mg/kg
Procedure: FIG. 1 is a graph showing the effect of intravenous QX-314 (0.4 mg/kg) on the edema elicited by injection of complete Freund's adjuvant (CFA) in the rat hindpaw determined by measuring the total volume of the hindpaw by plethysmography. The degree of swelling produced by injection of CFA is reduced by administration of QX-314 reflecting reduction in neurogenic edema resulting from the blockade of nociceptors by QX314.

COc1cc(CNC(=O)CCCC/C=C/C(C)C)ccc1O [capsaicin, reference compound]
effect on calcium channel currents, capsaicin alone ([1]; 1 μM capsaicin alone, before and 3 minutes after exposure, step from −80 mV to −20 mV, 2 mM Ba2+): weak, transient effects

COc1ccc(CC[N+](C)(C)CCCC(C#N)(c2ccc(OC)c(OC)c2)C(C)C)cc1OC (centres unmarked) [N-methyl-verapamil]
effect on calcium channel currents, N-methyl-verapamil alone ([1]; 300 μM N-methyl-verapamil alone, before and 3 minutes after exposure, step from −80 mV to −20 mV, 2 mM Ba2+): weak, transient effects | inhibition of voltage-dependent calcium channel current, N-methyl-verapamil applied in the presence of capsaicin ([1]; 300 μM N-methyl-verapamil in the presence of 1 μM capsaicin to open TRPV1 channels, 3 minutes after exposure and after washout): long-lasting inhibition; also recorded: inhibition of calcium channel currents that persists after washout; also recorded: inhibition of voltage-dependent calcium channel current

CC[N+](CC)(CC)CC(=O)Nc1c(C)cccc1C [QX-314]
degree of swelling produced by injection of CFA (total volume of the hindpaw) (rat hindpaw; CFA-injected hindpaw): reduced | effect on hindpaw volume of QX-314 by itself (rat hindpaw; by itself (no CFA), compared with saline): no effect different from administration of saline
